Tested on: oxazolone-induced colitis mice
Test: Oxazolone-induced acute colitis in mice for ulcerative colitis
Format: in vivo, Balb/c mice
Conditions: compound 1 5 mg/kg, tofacitinib 10 mg/kg; for bodyweight loss (bodyweight change, FIG. 1): PO BID 5 days (Days 4 to 8 after sensitization) in 0.5% CMC-Na; for DAI score (disease activity index, FIG. 2): PO BID 5 days, scored per Table 2; for colon density (FIG. 5) / colon length (FIG. 4) / colon weight (FIG. 3): colon collected Day 9, PO BID 5 days
Description: Compound 1 (i.e., lifitegrast) was evaluated in an oxazolone-induced colitis murine model, along with tofacitinib. Boirivant et al., J. Exp. Med. 1998, 188, 1929-39. Balb/c mice were randomly divided into 4 groups according to Table 1: 2 treatment groups (Treatment Groups), 1 vehicle group (Vehicle Group), and 1 sham group (Sham Group). The mice in Treatment and Vehicle Groups were sensitized with 200 μL of 2% oxazolone in acetone and olive oil (1:4), followed by injection of 100 μL of 1.5% oxazolone into the rectum of each mouse on Day 5 after sensitization. The mice in Sham Group were sensitized with 200 μL of a mixture of acetone and olive oil (1:4) without oxazolone, followed by injection of 100 μL of 50% ethanol/water into the rectum of each mouse on Day 5 after sensitization. Before the injection into the rectum, each mouse was anesthetized intraperitoneally with tribromoethanol (0.3 mL, 1.25%). From Days 4 to 8 after sensitization, the mice in Sham Group and Vehicle Group were each given 0.5% CMC-Na by gavage, and the mice in Treatment Groups were each given by gavage tofacitinib or compound 1 in 0.5% CMC-Na, respectively, according to the dosing schedule shown in Table 1.
The bodyweight of each mouse was measured daily. From Day 4 after sensitization, the fecal property and occult blood as determined with a fecal occult blood test (FOBT) of each mouse were measured daily to calculate a disease activity index (DAI) according to Table 2.
On Day 9 after sensitization, each mouse was euthanized and blood was collected from the heart. A serum was prepared and frozen for the determination of inflammatory factors.
The colon of each mouse was collected and photographed, and the colon length was measured and weighed after the removal of the content of the colon. A part of each colon collected was fixed using the Swiss roll technique in neutral paraformaldehyde for pathological scoring (Table 3) as described in Bialkowska et al., J. Vis. Exp. 2016, 113, e54161. The rest of the colon mucosa of each mouse was scraped and frozen for the determination of inflammatory factors.

| Structure (SMILES) | bodyweight loss (bodyweight change, FIG. 1) | DAI score (disease activity index, FIG. 2) | colon density (FIG. 5) | colon length (FIG. 4) | colon weight (FIG. 3) |
| --- | --- | --- | --- | --- | --- |
| CS(=O)(=O)c1cccc(C[C@H](NC(=O)c2c(Cl)cc3c(c2Cl)CCN(C(=O)c2ccc4ccoc4c2)C3)C(=O)O)c1 [compound 1, (S)-2-(2-(benzofuran-6-carbonyl)-5,7-dichloro-1,2,3,4-tetrahydroisoquinoline-6-carboxamido)-3-(3-(methylsulfonyl)phenyl)propanoic acid] | slowed the bodyweight loss | improved the DAI score | able to reverse the disease effects | able to reverse the disease effects | able to reverse the disease effects |
| C[C@@H]1CCN(C(=O)CC#N)C[C@@H]1N(C)c1ncnc2[nH]ccc12 [tofacitinib] | slowed the bodyweight loss | improved the DAI score | able to reverse the disease effects | able to reverse the disease effects | able to reverse the disease effects |

From patent US20240197713A1, “LFA-1 ANTAGONISTS FOR TREATING INFLAMMATORY BOWEL DIESEASE” (VivaVision Biotech, Inc, priority 2022, published 2024)
